Activity calls are given as the source filed them.
What was measured:
Caspase-6 = Caspase-6 (Homo sapiens, UniProt P55212); assay: human caspase-6 inhibitors, dose response, biochemical, VEID-R110 fluorescence, cherry-pick (AID 720632)
[1] = biological target: Histone-lysine N-methyltransferase NSD2 (Homo sapiens, UniProt O96028); type: biochemical
Protein RecA = biological target: T1, Protein RecA (Mycobacterium tuberculosis, UniProt P9WHJ3); assay: Fluorescence Cell-Free Homogeneous Dose Retest to Identify Inhibitors of RecA-Intein Splicing Activity. [Related pubchem assays (depositor defined):AID2097, AID2223, AID489010, AID492950]; type: functional
T1 sequence (P9WHJ3 whole entry): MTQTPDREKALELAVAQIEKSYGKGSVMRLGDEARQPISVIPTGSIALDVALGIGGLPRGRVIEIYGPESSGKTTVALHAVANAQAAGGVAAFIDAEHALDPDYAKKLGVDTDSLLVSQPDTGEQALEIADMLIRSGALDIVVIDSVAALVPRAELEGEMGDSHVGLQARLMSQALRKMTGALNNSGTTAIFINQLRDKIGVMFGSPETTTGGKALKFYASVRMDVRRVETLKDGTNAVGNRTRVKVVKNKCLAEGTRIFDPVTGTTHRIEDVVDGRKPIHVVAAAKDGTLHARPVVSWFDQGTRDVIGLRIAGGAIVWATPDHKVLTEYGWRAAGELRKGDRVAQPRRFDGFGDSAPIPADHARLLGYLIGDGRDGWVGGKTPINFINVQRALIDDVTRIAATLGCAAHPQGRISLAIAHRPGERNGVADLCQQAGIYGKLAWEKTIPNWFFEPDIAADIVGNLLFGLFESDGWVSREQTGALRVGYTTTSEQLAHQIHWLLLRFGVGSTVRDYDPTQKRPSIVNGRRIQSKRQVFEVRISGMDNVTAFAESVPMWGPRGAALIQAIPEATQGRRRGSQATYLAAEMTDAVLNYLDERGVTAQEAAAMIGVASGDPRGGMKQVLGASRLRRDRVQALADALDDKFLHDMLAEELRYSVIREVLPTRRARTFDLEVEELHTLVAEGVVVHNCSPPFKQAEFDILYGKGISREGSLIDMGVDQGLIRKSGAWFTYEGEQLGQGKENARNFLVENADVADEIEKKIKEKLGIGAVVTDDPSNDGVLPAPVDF

[2] = biological target: DNA (cytosine-5)-methyltransferase 1 (Homo sapiens, UniProt P26358); assay: DNMT1 methyltransferase inhibitors, confirmation, biochemical, fluorescent molecular beacon (AID 602386); type: functional
[3] = biological target: T2, Replicative DNA helicase DnaB (Mycobacterium tuberculosis, UniProt P9WMR3); assay: DnaB intein splicing inhibitors, dose response, biochemical, cell-free fluorescence (AID 449749); type: functional
T2 sequence (P9WMR3 whole entry): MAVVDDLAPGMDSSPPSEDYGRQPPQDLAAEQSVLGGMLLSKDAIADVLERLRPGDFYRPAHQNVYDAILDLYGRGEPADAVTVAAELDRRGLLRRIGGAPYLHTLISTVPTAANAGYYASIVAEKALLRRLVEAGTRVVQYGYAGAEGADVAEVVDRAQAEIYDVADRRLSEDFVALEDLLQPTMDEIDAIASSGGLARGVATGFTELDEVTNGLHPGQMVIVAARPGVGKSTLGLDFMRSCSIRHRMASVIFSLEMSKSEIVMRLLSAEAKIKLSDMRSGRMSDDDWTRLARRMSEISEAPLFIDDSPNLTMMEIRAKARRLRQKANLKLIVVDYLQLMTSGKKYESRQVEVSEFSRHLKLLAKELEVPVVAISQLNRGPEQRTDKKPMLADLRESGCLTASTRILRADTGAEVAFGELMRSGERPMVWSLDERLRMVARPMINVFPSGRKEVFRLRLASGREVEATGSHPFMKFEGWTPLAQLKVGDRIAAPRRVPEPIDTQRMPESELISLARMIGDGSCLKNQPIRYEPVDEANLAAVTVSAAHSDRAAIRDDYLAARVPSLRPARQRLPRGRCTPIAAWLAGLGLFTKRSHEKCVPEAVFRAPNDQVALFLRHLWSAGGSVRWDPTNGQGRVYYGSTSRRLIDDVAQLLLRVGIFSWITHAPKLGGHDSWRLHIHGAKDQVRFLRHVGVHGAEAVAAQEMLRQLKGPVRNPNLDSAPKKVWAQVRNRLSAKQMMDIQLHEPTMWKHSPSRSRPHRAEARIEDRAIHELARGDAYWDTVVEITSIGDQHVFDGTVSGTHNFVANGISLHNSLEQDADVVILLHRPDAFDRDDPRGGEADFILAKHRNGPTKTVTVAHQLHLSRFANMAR

[4] = biological target: Glutathione-S-transferase (Schistosoma japonicum, UniProt Q26513); assay: biotin-GST/anti-GST TR-FRET signal inhibitors, dose response, artefact control for Vif-APOBEC3G degradation inhibitor project, biochemical (AID 1117362); type: functional
Large T antigen = Large T antigen (Simian virus 40, UniProt P03070); type: functional, Betapolyomavirus macacae;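 note: Confirmatory-stage PubChem screen for compounds that inhibit SV40 T antigen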
14-3-3 protein gamma = 14-3-3 protein gamma (Homo sapiens, UniProt P61981); assay: modulators of 14-3-3 gamma client binding – dose response (AID 711); type: functional
[5] = inhibitors of Vif binding to APOBEC3G peptide, primary screen, biochemical, TR-FRET, GST-Vif 1-94, biotin-A3G peptide, dose response retest (AID 1117319); type: functional;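 note: TR-FRET signal of purified GST-Vif binding a biotinylated A3G peptide; inhibitors lower the FRET signal by blocking Vif and A3G binding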
[6] = biological target: Voltage-dependent T-type calcium channel subunit alpha-1H (Homo sapiens, UniProt O95180); type: functional;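 note: channel activity triggered by adding a high calcium stimulation buffer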
Ephrin type-A receptor 4 = Ephrin type-A receptor 4 (Mus musculus, UniProt Q03137); assay: inhibitors of EphA4 binding to KYL peptide, primary screen, biochemical, colorimetric, mouse EphA4 (AID 689); type: functional
Streptococcus = assay: Group A Streptococcus viability loss, dose response, counter-screen for streptokinase expression inhibitor project, luminescence, BacTiterGlo (AID 1915); type: functional, organism-based;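 note: potency for reduction of bacterial viability or growth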
H9c2 = assay: cells; type: functional, cell-based; conditions: Rattus norvegicus, H9c2, Myocardium;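 note: confirmatory concentration-response retest of ultra-high-throughput screening hits for modulation of myocardial damage; cell death induced by hydrogen peroxide oxidative stress; compound pretreatment for 60 min then peroxide exposure for 2 h; potency is for protecting the cells against peroxide damage rather than for killing them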
Streptokinase A = biological target: T3, Streptokinase A (Streptococcus pyogenes serotype M1, UniProt P10520); assay: S. pyogenes streptokinase expression inhibitors, potency, dose response, plasminogen activation absorbance, OD405 (AID 1914); type: functional, Streptococcus pyogenes M1 GAS;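 note: secreted streptokinase activity via plasminogen activation per viability signal from cell pellet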
T3 sequence (P10520 whole entry): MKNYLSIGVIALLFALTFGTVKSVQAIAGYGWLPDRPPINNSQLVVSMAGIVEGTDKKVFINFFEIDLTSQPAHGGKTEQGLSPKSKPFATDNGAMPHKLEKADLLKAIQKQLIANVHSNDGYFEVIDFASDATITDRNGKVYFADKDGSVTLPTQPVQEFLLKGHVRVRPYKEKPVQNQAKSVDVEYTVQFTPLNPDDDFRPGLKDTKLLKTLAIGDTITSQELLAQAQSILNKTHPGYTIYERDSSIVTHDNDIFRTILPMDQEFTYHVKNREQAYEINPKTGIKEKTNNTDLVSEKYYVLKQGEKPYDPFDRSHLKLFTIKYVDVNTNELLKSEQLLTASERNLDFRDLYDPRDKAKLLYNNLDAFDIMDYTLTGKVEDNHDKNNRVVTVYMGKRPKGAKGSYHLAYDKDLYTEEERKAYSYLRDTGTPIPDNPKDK

[7] = biological target: T4, Endoribonuclease toxin MazF (Escherichia coli K-12, UniProt P0AE70); assay: MazF toxin RNase activators, dose response, biochemical, fluorescence, single-stranded RNA substrate, uHTS hits (AID 588481); type: functional
T4 sequence (P0AE70 whole entry): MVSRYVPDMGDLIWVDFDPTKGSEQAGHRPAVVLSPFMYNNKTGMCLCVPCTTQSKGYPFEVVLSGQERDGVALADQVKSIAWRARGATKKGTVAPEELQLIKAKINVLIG

[8] = biological target: T4, Endoribonuclease toxin MazF; assay: fluorescent RNA oligo signal without MazF, dose response, counter-screen for MazEF activator project, biochemical, fluorescence, single-stranded RNase substrate (AID 588502); type: functional
[9] = tested on: Streptococcus sp. 'group A'; assay: growth inhibition of control SK(-) GAS strain, dose response, counter-screen for streptokinase expression inhibitor project, luminescence, kanamycin, BacTiterGlo, confirmation (AID 1900); type: functional, organism-based
[10] = A2780 ovarian cancer cell cytotoxicity, dose response, cytotoxicity control, plate reader, dry powder samples (AID 743046); type: functional, cell-based
Paired box protein Pax-8 = Paired box protein Pax-8 (Homo sapiens, UniProt Q06710); assay: inhibitors of PAX8-driven TPO luciferase reporter, dose response, RMG-I cells, cherry-pick (AID 687027); type: functional, cell-based;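 note: luciferase reporter driven by Pax8 target thyroperoxidase promoter measured by SteadyGlo luminescence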
[11] = cytotoxicity in OVCAR8 ovarian cancer cells, dose response, PAX8 project, cell-based, plate reader, dry powder samples (AID 743197); type: functional; conditions: OVCAR-8
[12] = NIH:OVCAR-3 ovarian cancer cell cytotoxicity, dose response, PAX8 inhibitor project, plate reader, dry powder samples (AID 743044); type: functional, cell-based
[13] = inhibitors of non-replicating M. tuberculosis, dose response, luciferase, dry powder (AID 651620); type: functional
[14] = inhibitors of non-replicating M. tuberculosis, dose response, luciferase, dry powder (AID 651619); type: functional
[15] = biological target: NAD-dependent protein deacylase sirtuin-5, mitochondrial (Homo sapiens, UniProt Q9NXA8); assay: SIRT5 deacylase inhibitors, dose response, biochemical, fluorescence imaging, cherry-pick, set 6 (AID 720597)
[16] = cytotoxicity toward HCT116 cells – cell-based, CellTiter-Glo luminescence, IC50, dose response (AID 1117332); type: functional; conditions: HCT-116
[17] = CellTiter-Glo luminescent dose response of DLD-1 viability loss (AID 1117352); type: functional
[18] = Concentration-dependent survival of SW480 colon cancer line, luminescence detection with CellTiter-Glo, half-maximal inhibitory concentration (AID 1117338); type: functional
[19] = SNU-C1 cell viability reduction, dose response, CellTiter-Glo luminescence (AID 1117323); type: functional, cell-based
[20] = RKO cell viability reduction, dose response, CellTiter-Glo luminescence (AID 1117322); type: functional
[21] = HCT116 cell viability decrease, GSK3B pretreatment – CellTiter-Glo, IC50, dose response (AID 1117339); type: functional; conditions: HCT-116
[22] = cytotoxicity toward HT-29 cells – cell-based, CellTiter-Glo luminescence, IC50, dose response (AID 1117330); type: functional
[23] = cytotoxicity toward Colo320 cells – cell-based, CellTiter-Glo luminescence, IC50, dose response (AID 1117334); type: functional; conditions: COLO 320

Sequence of NAD-dependent protein deacylase sirtuin-5, mitochondrial (Q9NXA8 whole entry): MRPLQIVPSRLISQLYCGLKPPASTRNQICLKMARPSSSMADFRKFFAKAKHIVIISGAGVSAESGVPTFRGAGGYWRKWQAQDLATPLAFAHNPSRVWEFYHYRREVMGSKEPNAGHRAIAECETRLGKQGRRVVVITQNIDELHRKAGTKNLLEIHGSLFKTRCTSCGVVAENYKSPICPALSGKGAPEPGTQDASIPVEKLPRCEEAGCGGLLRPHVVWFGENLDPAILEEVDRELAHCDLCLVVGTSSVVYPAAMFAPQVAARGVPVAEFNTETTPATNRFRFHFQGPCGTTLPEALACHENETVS
Sequence of Ephrin type-A receptor 4 (Q03137 whole entry): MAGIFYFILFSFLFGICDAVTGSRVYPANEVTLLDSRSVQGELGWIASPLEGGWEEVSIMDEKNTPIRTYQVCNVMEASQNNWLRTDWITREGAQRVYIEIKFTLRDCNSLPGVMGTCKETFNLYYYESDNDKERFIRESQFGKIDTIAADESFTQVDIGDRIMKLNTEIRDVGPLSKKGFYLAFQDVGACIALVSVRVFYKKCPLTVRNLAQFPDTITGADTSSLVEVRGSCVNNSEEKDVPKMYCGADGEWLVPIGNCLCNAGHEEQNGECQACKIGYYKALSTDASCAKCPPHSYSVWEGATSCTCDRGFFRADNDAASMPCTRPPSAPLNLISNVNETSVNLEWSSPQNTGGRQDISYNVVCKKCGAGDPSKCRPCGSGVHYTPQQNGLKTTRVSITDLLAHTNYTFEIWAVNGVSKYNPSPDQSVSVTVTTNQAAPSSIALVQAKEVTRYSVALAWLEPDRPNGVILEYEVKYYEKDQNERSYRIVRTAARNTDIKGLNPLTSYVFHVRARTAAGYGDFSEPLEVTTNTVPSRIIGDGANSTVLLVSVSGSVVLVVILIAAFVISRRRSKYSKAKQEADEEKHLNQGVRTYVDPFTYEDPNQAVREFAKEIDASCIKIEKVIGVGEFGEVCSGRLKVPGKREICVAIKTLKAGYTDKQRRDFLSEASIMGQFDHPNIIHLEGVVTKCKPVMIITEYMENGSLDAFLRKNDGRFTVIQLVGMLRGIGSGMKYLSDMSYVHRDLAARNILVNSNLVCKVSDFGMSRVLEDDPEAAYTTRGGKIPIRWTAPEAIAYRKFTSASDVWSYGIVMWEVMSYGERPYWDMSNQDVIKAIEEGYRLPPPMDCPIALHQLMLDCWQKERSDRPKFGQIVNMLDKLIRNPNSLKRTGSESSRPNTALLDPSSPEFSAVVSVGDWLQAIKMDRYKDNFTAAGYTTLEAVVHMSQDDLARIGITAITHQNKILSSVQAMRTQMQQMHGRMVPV
Sequence of Glutathione-S-transferase (Q26513 whole entry): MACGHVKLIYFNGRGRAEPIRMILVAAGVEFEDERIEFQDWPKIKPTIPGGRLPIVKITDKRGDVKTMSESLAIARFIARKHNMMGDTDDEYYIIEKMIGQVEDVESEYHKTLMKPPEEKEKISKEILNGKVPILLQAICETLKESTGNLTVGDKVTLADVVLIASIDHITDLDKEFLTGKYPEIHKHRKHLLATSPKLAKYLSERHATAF
Sequence of Caspase-6 (P55212 24-179 limits assumed): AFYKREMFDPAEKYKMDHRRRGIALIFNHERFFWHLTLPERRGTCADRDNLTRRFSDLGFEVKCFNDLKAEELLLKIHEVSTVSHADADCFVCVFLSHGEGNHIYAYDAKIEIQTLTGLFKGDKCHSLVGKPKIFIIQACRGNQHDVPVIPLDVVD
Sequence of Caspase-6 (P55212 194-293 limits assumed): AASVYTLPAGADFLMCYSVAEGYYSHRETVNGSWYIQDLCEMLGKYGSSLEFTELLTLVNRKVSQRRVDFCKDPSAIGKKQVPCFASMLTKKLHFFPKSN
Sequence of DNA (cytosine-5)-methyltransferase 1 (P26358 whole entry): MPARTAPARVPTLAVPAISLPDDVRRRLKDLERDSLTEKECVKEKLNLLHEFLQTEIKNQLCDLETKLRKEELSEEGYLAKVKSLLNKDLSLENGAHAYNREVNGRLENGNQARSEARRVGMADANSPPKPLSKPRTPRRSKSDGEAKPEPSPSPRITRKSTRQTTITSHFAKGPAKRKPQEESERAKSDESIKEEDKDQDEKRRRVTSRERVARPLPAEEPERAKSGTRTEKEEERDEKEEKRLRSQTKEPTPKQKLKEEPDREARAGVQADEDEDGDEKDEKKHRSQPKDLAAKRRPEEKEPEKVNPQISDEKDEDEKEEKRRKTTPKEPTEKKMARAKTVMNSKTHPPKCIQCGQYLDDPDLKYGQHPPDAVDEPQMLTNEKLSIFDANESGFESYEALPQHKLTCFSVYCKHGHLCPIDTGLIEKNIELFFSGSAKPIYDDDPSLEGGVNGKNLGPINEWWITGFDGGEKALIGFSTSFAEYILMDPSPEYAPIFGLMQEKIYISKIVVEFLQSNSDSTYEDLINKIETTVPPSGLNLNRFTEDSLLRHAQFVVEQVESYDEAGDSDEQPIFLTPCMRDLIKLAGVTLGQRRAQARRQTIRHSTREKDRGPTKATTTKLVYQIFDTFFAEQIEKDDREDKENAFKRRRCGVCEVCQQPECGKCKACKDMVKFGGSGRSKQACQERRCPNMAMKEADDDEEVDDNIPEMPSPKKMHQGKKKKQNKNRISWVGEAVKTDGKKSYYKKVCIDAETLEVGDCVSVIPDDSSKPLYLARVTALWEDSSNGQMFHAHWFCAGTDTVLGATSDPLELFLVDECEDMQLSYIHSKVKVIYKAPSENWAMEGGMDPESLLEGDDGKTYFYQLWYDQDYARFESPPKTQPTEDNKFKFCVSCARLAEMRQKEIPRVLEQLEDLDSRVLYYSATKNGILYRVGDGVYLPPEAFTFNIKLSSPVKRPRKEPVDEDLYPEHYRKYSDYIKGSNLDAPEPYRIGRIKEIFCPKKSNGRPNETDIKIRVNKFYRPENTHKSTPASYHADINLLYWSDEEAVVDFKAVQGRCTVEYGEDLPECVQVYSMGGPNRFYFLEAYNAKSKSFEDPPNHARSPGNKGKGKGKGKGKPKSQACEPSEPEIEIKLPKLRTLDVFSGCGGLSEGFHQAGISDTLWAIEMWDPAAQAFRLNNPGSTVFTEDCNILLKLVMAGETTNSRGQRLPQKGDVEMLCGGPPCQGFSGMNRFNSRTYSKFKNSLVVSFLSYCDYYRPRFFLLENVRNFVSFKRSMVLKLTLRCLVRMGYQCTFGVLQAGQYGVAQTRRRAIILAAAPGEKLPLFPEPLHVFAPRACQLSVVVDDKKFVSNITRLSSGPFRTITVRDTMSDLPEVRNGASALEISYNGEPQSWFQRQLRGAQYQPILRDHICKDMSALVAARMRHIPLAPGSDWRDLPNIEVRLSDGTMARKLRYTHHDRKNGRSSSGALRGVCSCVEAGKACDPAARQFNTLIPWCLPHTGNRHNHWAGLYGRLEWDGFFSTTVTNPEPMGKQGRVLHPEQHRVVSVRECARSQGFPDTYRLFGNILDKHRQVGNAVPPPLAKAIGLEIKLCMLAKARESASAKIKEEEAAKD
Sequence of Histone-lysine N-methyltransferase NSD2 (O96028 whole entry): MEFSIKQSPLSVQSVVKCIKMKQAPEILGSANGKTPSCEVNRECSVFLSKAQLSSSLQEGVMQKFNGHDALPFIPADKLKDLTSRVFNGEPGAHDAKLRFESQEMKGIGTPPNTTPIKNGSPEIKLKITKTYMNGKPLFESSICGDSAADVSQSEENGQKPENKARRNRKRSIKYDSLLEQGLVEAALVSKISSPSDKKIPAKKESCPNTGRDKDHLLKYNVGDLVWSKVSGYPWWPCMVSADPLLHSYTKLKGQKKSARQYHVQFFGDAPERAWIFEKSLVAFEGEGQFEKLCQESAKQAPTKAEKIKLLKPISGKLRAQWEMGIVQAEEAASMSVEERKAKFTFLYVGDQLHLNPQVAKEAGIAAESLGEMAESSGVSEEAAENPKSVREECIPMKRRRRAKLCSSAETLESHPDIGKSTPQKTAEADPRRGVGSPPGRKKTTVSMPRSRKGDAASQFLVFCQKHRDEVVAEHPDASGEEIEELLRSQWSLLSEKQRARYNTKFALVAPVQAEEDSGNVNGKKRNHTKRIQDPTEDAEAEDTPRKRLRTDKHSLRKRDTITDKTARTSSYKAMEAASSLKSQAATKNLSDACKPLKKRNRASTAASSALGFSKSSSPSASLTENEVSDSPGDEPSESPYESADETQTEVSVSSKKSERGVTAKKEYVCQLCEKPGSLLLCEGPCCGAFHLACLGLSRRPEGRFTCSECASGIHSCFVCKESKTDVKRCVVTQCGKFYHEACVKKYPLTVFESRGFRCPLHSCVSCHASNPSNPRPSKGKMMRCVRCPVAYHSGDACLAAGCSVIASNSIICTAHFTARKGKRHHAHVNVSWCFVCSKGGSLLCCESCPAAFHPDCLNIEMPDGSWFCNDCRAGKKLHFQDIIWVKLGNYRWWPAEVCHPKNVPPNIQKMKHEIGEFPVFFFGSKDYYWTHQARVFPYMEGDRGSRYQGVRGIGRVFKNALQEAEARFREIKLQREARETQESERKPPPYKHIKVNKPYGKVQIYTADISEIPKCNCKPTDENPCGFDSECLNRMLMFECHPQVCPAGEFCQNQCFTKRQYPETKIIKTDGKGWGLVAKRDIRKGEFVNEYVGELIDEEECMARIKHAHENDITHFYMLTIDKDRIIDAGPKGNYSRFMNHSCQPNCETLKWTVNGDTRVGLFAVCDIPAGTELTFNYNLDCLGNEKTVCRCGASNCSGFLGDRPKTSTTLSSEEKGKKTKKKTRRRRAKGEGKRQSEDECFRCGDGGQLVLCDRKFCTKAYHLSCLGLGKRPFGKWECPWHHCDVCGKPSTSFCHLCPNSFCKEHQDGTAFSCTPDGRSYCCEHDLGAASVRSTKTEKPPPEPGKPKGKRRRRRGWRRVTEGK
Sequence of 14-3-3 protein gamma (P61981 whole entry): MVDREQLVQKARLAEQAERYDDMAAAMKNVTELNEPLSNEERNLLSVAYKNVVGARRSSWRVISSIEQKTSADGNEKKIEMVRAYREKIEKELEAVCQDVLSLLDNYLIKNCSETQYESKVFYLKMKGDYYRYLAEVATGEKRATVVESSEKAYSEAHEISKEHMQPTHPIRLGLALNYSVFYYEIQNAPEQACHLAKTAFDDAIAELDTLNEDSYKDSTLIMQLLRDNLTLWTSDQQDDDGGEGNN

NS(=O)(=O)c1ccc(N=Nc2ccc(O)nc2O)cc1
AC50 (Caspase-6): 2.07 µM (active)
AC50 [1]: > 20 µM (inactive)
EC50 (Protein RecA): 4.4 µM (active)
IC50 [2]: 7.65 µM (active)
AC50 [3]: 53.2 µM (active)

Nc1ccc(-c2nc3cc(N)ccc3n2CCO)cc1
IC50 [4]: > 100 µM (active)
IC50 (Large T antigen): 41.7 µM (active)

CN(C)S(=O)(=O)CC12CCC(CC1=O)C2(C)C (stereo unspecified)
IC50 (14-3-3 protein gamma): > 50 µM (not active)

CCN(CC)C(=O)c1ccc(CS(=O)(=O)c2ccc(OC)cc2)o1
IC50 [5]: > 100 µM (active)

COc1ccc(C(c2nnnn2Cc2cccs2)N2CCN(c3ccccc3F)CC2)cc1 (stereo unspecified)
EC50 [6]: 18 µM (active)
IC50 (Ephrin type-A receptor 4): > 100 µM (not active)

C=CCn1c(C)cc(-c2csc(N)n2)c1C
IC50 [4]: 28.2 µM (active)

CC(C(=O)N1CCOCC1)(c1ccccc1)c1ccccc1
IC50 [5]: > 100 µM (active)

CCn1c(O)c(/C=N/N=C/c2ccccc2)c2ccc(C3=NNC(=O)CC3)cc21
EC50 (Streptococcus): 10.5 µM (active)
IC50 (H9c2): > 79 µM (inactive)
EC50 (Streptokinase A): > 150 µM (not active)
EC50 [7]: > 99 µM (inactive)
EC50 [8]: > 99 µM (inactive)
IC50 (Ephrin type-A receptor 4): > 100 µM (not active)
EC50 [9]: 6.42 µM (active)

C[C@H]1CN([C@@H](C)CO)C(=O)Cc2cc(NC(=O)C3CC3)ccc2O[C@@H]1CN(C)Cc1ccc(-c2ccccc2)cc1
AC50 [10]: 21.9 µM (active)
AC50 (Paired box protein Pax-8): 6.35 µM (active)
AC50 [11]: > 70 µM (inactive)
AC50 [12]: 38 µM (active)

Clc1ccc(-c2nnc(SCc3cn(Cc4ccccc4)nn3)o2)cc1
IC90 [13]: 1 µM (active)
IC90 ([13]; Mycobacterium tuberculosis): 2 µM (active)
IC90 [14]: 1 µM (active)
IC90 ([14]; Mycobacterium tuberculosis): 2 µM (active)

C[C@H](CO)N1C[C@H](C)[C@@H](CN(C)C)Oc2ccc(NC(=O)Nc3ccc(F)cc3)cc2CC1=O
AC50 [15]: > 30 µM (inactive)

CC(C)CC#Cc1ccc([C@@H]2[C@@H](CO)N3C(=O)CN(C(=O)c4ccccn4)C[C@H]23)cc1
AC50 [15]: 19.7 µM (active)

CCOC(=O)C=C(C)C=CC[C@@H](C)CCCC(C)C
IC50 [16]: > 20 µM (inactive)
IC50 [17]: > 20 µM (inactive)
IC50 [18]: > 20 µM (inactive)
IC50 [19]: > 20 µM (inactive)
IC50 [20]: > 20 µM (inactive)
IC50 [21]: > 20 µM (inactive)
IC50 [22]: > 20 µM (inactive)
IC50 [23]: > 20 µM (inactive)

O=[N+]([O-])c1cccc(S(=O)(=O)NCCNS(=O)(=O)c2cccc([N+](=O)[O-])c2)c1 [DINSED]
IC50 [16]: > 20 µM (inactive)
IC50 [17]: > 20 µM (inactive)
IC50 [18]: > 20 µM (inactive)
IC50 [19]: > 20 µM (inactive)
IC50 [20]: > 20 µM (inactive)
IC50 [21]: > 20 µM (inactive)
IC50 [22]: > 20 µM (inactive)
IC50 [23]: > 20 µM (inactive)

— ChEMBL document CHEMBL1201862, “PubChem BioAssay data set” (2004)
